Measured values as given in patent publication US20240100027A1, “INHIBITION OF PROSTAGLANDIN DEGRADING ENZYME 15-PGDH TO IMPROVE JOINT STRUCTURE AND FUNCTION” (The Board of Trustees of the Leland Stanford Junior …, priority 2020, published 2024).

What was measured:
[1] = tested on: knee joints of aged mice; assay: Systemic i.p. treatment of aged mice: knee joint Safranin O histology and OARSI scoring; assay type: in vivo, mice C57BL/6; conditions: 5 mg/kg i.p. daily for 1 month
Protocol: Mice handling. All experiments and protocols were performed in accordance with the institutional guidelines of Stanford University and Administrative Panel on Laboratory Animal Care (APLAC). Aged (24-28 mo.) mice C57BL/6 were obtained from the US National Institute on Aging (NIA) aged colony.
(§1) Histology on mouse joints and human cartilage explants. Mouse joints were fixed in 4% paraformaldehyde overnight, dehydrated in ethanol and embedded in paraffin. Sagittal Sections (5 μm) of the mouse joints were cut by the Histoserv, Inc (Germantown, MD). Cartilage histology was performed by Safranin O (Saf O) staining as previously reported (Smeriglio et al., 2020, Sci Transi. Med. 12:eaax2332). Joints were assessed through blinded grading with the OARSI scoring system. Briefly, sections of mouse joints were stained with Safranin O, and cartilage degeneration was evaluated by assigning numbers 0 to 4 for increasing depth of cartilage degeneration (OARSI scoring system). For the summit scores, five regions were summed.
SW was previously extensively characterized as a specific inhibitor of 15-PGDH in vitro (ki of 0.1 nM).

[2] = molecular target: 15-PGDH (Mus musculus, UniProt Q8VCC1); conditions: aged muscles, one month of daily intraperitoneal treatment, cited from earlier work
[3] = tested on: human OA cartilage explants; assay: Human OA cartilage explants: Luminex cytokine panel on culture medium; assay type: cell-based; conditions: culture medium (secretome) of SW treated explants vs vehicle
From the text: (§2) Human cartilage tissue collection and treatment. Human cartilage samples were harvested from the surgical knee tissue discards of patients (n>5, age ranging from 55-75 years) undergoing total knee arthroplasty according to approved human subjects institutional review board protocols at Stanford University. Informed, written consent was given by the patients prior to the study. Cylindrical explants (4 mm diameter, 2-4 mm thickness) were extracted from the cartilage samples using standard biopsy punches (Integra, NJ. USA). Cartilage explants were cultured in DMEM-F12 medium supplemented with 10% fetal bovine serum (FBS), 25 μg mL^−1 ascorbic acid, 1× glutamine, and 1× antibiotic-antimycotic solution prior to experiments. To assess the effect of 15-PGDH inhibition, explants were treated with Vehicle (DMSO) or SW (10 uM) for 1 week prior to the assessment. Fresh media was added to the explants every other day.
(§3) Luminex Assay. This assay was performed at the Human Immune Monitoring Center at Stanford University. Human 76-plex or mouse 48-plex kits (eBioscience/Affymetrix) were used according to the manufacturer's recommendations. Briefly, antibody beads and samples were added to a 96-well plate and incubated at room temperature for 2 hours, followed by overnight incubation at 4° C. with shaking at 500 to 600 rpm. Plates were then washed in a w ash buffer, and biotinylated detection antibody was added for 2 hours at room temperature with shaking. Plate was washed, and streptavidin-phycoerythrin was added After 40 min incubation and washes, reading buffer was added to the wells Plates were read using a Luminex 200 instrument with a lower bound of 50 beads per sample per cytokine. Custom assay control beads were added to all wells. The raw MFI read-outs of all samples were used and analyzed by GraphPad prism.
(§4) Next, the effects of 15-PGDH inhibition in human OA cartilage were tested. […] Sulphated glycosaminoglycans (sGAG) were also independently quantified through measurements with the DMMB dye. […]

[4] = tested on: human OA cartilage explants; assay: Human OA cartilage explants: Safranin O staining; assay type: cell-based; conditions: SW 10 uM, 1 week, all zones, especially middle and deep zone
From the text: as §2
After 1 week of treatment with SW, explants were fixed in 4% paraformaldehyde, washed with PBS, and cryopreserved in 30% sucrose solution overnight. […] Explants from at least five different patient donors and multiple (>5) sections were used for quantitative analysis.
as §4

[5] = tested on: cartilage from aged mice; assay: RNA-seq, differential gene expression and Ingenuity Pathway Analysis of cartilage from aged mice treated systemically; assay type: in vivo
Protocol: Mice handling. […] Aged (24-28 mo.) mice C57BL/6 were obtained from the US National Institute on Aging (NIA) aged colony.
RNA extraction and library preparation from mouse joints for RNA seq. Knee joint microdissection was performed under a stereoscope to collect cartilage tissue by carefully eliminating any tendons, synovial membrane and meniscal residue and then shaving the cartilage tissue from the underlying bone (Smeriglio et al., 2020, Sci Transl. Med. 12:eaax2332). The isolated cartilage tissue was kept in RNA later (Ambion) and stored at −80° C. for later use. Cartilage tissue was homogenized in Trizol using a bullet blender (Next Advance), followed by RNA extraction and purification using RNeasy micro-kit (Qiagen). cDNA libraries were constructed from 10 ng total RNA using SMARTer stranded Total RNA-Seq kit v3 (Takara Bio). Libraries were sequenced to 25-30×10^6 150-bp paired end reads per sample on an Illumina NovaSeq platform (Novogene, CA).
Differential Gene Expression Analysis. For the RNA-seq analysis, pseudo aligner Salmon was used to quantify the expression of transcripts. Sequences were also aligned against the Mus musculus genome (mm9) using the STAR aligner. A counts matrix containing the number of counts for each gene and each sample was obtained. This matrix was analyzed by DESeq2 to calculate statistical analysis of significance of genes between samples. […] Functional analysis of differentially expressed genes was analyzed using Ingenuity Pathway Analysis (IPA) and DAVID bioinformatic tools.
To identify the downstream molecular pathways through which 15-PGDH may exert its effect on aged cartilage, transcriptomic analysis of vehicle and SW treated cartilage from aged mice (24 mo) was performed and compared to cartilage from young adult mice (3 mo) through RNA-seq.

[6] = tested on: OA knee joints of adult mice; assay: Tibia loading (ACL rupture) post-traumatic OA in adult mice, intra-articular injections: Safranin O histology and OARSI scoring; assay type: in vivo, mice C57BL/6; conditions: tibial compression OA, intra-articular twice a week for 4 weeks
From the text: (§5) Tibia loading to induce osteoarthritis in young mice. Briefly, mice were anesthetized using 2.5% isoflurane inhalation under 4 L/min of oxygen. The right tibia was positioned vertically, with the ankle upward and the knee downward in deep flexion between loading cups. Using a material testing machine (Instron ElectroPulse E1000), axial compression was applied through the knee via the upper cup, while the lower cup was fixed and linked to the load cell. The ACL tear was confirmed by the release of compressive force during compression. Mice were allowed to progress for 6 weeks after loading (n=8 for each group). Contralateral left limb served as a non-loaded control. Mice blood serum was collected via retro-orbital bleeding to do multiplex autoantibody assay. Mice were sacrificed by cervical dislocation and knee joint were collected for assessment.
as §1
To test whether 15-PGDH inhibition would be protective in younger, adult mice upon induction of OA, OA was induced in young, adult mice (3 months old) by application of tibial compression on the mouse knee leading to anterior crucial ligament (ACL) rupture. This injury model recapitulates ACL injury frequently observed in human patients. After 1 week of injury, local intra-articular injections of vehicle or SW were given twice a week for 4 weeks. […]

[7] = tested on: human OA cartilage explants; assay: Human OA cartilage explants: DMMB assay for sGAG; assay type: cell-based; conditions: SW 10 uM, 7 days, vs vehicle
From the text: Human cartilage tissue collection and treatment. Human cartilage samples were harvested from the surgical knee tissue discards of patients (n>5, age ranging from 55-75 years) undergoing total knee arthroplasty according to approved human subjects institutional review board protocols at Stanford University. Informed, written consent was given by the patients prior to the study. Cylindrical explants (4 mm diameter, 2-4 mm thickness) were extracted from the cartilage samples using standard biopsy punches (Integra, NJ. USA). […]
1,9-dimethylmethylene Blue (DMMB) and Pico-green Assays. […] Briefly, 20 μL sample was mixed with 200 μL DMMB solution (16 mg DMMB dye dissolved in an aqueous solution of 0.03 m NaCl, 40 mm glycine, 9.5% 0.1 m acetic acid, pH 3.0) and absorbance was measured at 525 nm immediately. […] The DNA content in OA explants was measured by Pico-green assay (Quant-iT Pico-green dsDNA Assay Kit, Invitrogen) as per manufacturer's instructions using the same papain digest supernatant of the OA explants. Quantified sulfated GAG content in OA cartilage explants was normalized to the weight of corresponding explants and the DNA content.
as §4

[8] = tested on: inflammatory cytokine levels; assay: Luminex cytokine panel on serum of OA mice given intra-articular injections; assay type: in vivo; conditions: vs vehicle
From the text: as §5, §3
To test whether 15-PGDH inhibition would be protective in younger, adult mice upon induction of OA, OA was induced in young, adult mice (3 months old) by application of tibial compression on the mouse knee leading to anterior crucial ligament (ACL) rupture. This injury model recapitulates ACL injury frequently observed in human patients. After 1 week of injury, local intra-articular injections of vehicle or SW were given twice a week for 4 weeks. […] Upon blinded scoring of mice knee joints based on the OARSI scoring system, it was observed that the maximal damage score. […] To assess the inflammation in these mice, serum was utilized from vehicle or SW injected mice to test for a 39-plex Luminex cytokine panel. […] These observations corroborated that local 15-PGDH inhibition by SW treatment not only enhances cartilage regeneration but also decreases the inflammation in osteoarthritic mice.

[9] = tested on: PGE2 levels; conditions: in vivo, bone marrow, colon, lung and liver, cited from earlier work
[10] = tested on: human OA cartilage explants; assay: Human OA cartilage explants: Ki67 immunostaining; assay type: cell-based
From the text: as §2
Cell cycle marker-Ki67 immunostaining. Human OA explants treated with vehicle and SW were fixed and embedded in OCT as described in previous section, 10 μm sections on poly-1-lysine-coated glass slides were obtained using a cryostat. Immunostaining was performed using a standard protocol. […]
as §4

[11] = tested on: chondrocytes in articular cartilage; assay: Transmission electron microscopy of chondrocytes in articular cartilage, mitochondria per cell; assay type: in vivo, mice
Protocol: Transmission electron microscopy (TEM). Knee joints were fixed in Karnovsky's fixative composed of 2% Glutaraldehyde (EMS Cat #16000) and 4% paraformaldehyde (EMS Cat #15700) in 0.1M Sodium Cacodylate (EMS Cat #12300) pH 7.4 for 4 hours at 4° C. Joints were washed with cold PBS 3× and then decalcified in 14% EDTA solution in PBS for 3 days at 4° C. Samples were washed with PBS and placed in cold/aqueous 1% osmium tetroxide (EMS Cat #19100) on a rotator and allowed to warm to room temperature (RT) for 1 hr. Samples were washed 3× with ultrafiltered water followed by staining in 1% uranyl acetate at RT for 2 hours. Samples were then dehydrated in a series of ethanol washes for 30 minutes each at RT beginning at 50%, 70% and finally moved to 4° C. overnight. They were placed in cold 95% EtOH and allowed to warm to RT, changed to 100% 2×, then Propylene Oxide (PO) for 15 min. Samples were infiltrated with EMbed-812 resin (EMS Cat #14120) mixed 1:2, 1:1, and 2:1 with PO for 2 hrs each with leaving samples in 2:1 resin to PO overnight rotating at RT in the hood. The samples were then placed into EMbed-812 for 2 to 4 hours then placed into molds w/labels and fresh resin, orientated and placed into 65° C. oven overnight. […]

[12] = SW treated aged cartilage, almost to the levels of young cartilage
[13] = aged cartilage, SW vs vehicle, among 301 DEGs

15-PGDH, sequence (Q8VCC1 whole entry): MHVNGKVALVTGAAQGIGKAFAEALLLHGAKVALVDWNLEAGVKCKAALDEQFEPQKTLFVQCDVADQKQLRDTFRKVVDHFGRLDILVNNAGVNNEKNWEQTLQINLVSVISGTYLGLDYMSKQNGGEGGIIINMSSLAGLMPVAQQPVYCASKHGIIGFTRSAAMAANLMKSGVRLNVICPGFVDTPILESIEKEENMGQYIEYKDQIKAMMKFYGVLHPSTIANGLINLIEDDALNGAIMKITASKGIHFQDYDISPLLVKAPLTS

SMILES: CCCC[S+]([O-])c1sc2nc(-c3cccs3)cc(-c3ccccc3)c2c1N (stereo not shown) [SW033291, 2-(butylsulfinyl)-4-phenyl-6-(thiophen-2-yl)thieno[2,3-b]pyridin-3-amine]
- cartilage structure (safranin O staining of knee joints) [1]: improved cartilage structure with increased thickness, GAG staining and smoother cartilage surface
- OARSI Maximum score ([1]; vs control): significantly decreased
- OARSI Summit score ([1]; vs control): significantly decreased
- levels of PGE2 and PGD2 ([2]; LC-MS/MS): concomitant increase
- 15-PGDH specific activity [2]: significantly reduced
- CCL5 level [3]: significant reduction
- GMCSF level [3]: significant reduction
- IL6 level [3]: significant reduction
- GAG staining (Safranin O) [4]: increase in GAG staining
- genes involved in mitochondrial function and metabolism (IPA) ([5]; SW treated aged cartilage): significant upregulation
- COX5a expression [5, 12]: significantly upregulated
- Ndufa9 expression [5, 12]: significantly upregulated
- number of downregulated differentially expressed genes [5, 13]: 154
- number of upregulated differentially expressed genes [5, 13]: 147
- GAG staining and cartilage degradation (Safranin O) ([6]; 3-month-old mice, 6 weeks): higher GAG staining and reduced cartilage degradation
- OARSI Maximum score ([6]; vs vehicle): significantly decreased
- OARSI Summit score ([6]; vs vehicle): significantly decreased
- GAG content (sGAG, DMMB dye) [7]: significantly increased
- CCL4 level [8]: significant downregulation
- CCL7 level [8]: significant downregulation
- CXCL10 level [8]: significant downregulation
- IL2 level [8]: significant downregulation
- IL27 level [8]: significant downregulation
- VEGF level [8]: significant downregulation
- inflammatory cytokine levels [8]: overall reduction
- increase of PGE2 levels [9]: 2 fold
- increase of PGD2 levels ([9]; compared with PGE2 increase): to a lesser extent
- Ki67 intensity distribution ([10]; SW vs vehicle treated cells): increased Ki67 expression
- Ki67 positive cells ([10]; SW vs vehicle treated explants): increase in Ki67 positive cells
- number of mitochondria per cell (TEM images) ([11]; aged cartilage, SW treated vs vehicle treated): significant increase
- mitochondria per cell, quantification with Image J ([11]; aged chondrocytes, SW treatment, compared with young cartilage): restoring the mitochondria number in aged chondrocytes to the level of young cartilage
